The test system of the assay is Ago2 and Dicer protein interactions. Kind of assay: Targeted mass spectrometry of Ago2-Flag / Dicer-Flag interactions in HEK293 cells under stress. As to conditions: 0.5 mM, 60 min. The assay is classed as cell-based. Here is the method:
(FIG. 9A) The ratio of pre-miRNA to mature miRNA levels in NSC-34 cells, transfected with plasmids as indicated and in cells treated for 72 hrs with carrier alone (water, black) or with cycloheximide (CHX, 0.02 μg/ml, gray). Data normalized to control plasmid transfection. Pre-miRNAs further normalized to Gapdh (for FUS R495X, TDP-43 A315T) or to beta-actin (SOD1 G93A) and miRNA levels normalized to Snord68. Average of three independent experiments except for pre-miRNAs in the study of FUS R495X (n=2). Targeted quantitative mass spectrometry analysis of changes in the binding of Ago2 or Dicer to a set of proteins interactors under stress (FIGS. 9B-E). Immunoprecipitated Ago2-Flag (FIG. 9B) or Dicer-Flag (FIG. 9C) from HEK 293 cells, cultured under basal conditions or treated with sodium arsenite (0.5 mM, 60 min) was subjected to targeted mass-spectrometry analysis. Data is averaged from two or three different peptide standards per protein and normalized to the levels of co-immunoprecipiated peptides from untreated cells. Statistically significant result in a student t-test, between arsenite and control treatment is denoted (*p<0.05). Targeted mass spectrometry of (FIG. 9D) Dicer cofactors or (FIG. 9E) SG components, immunoprecipitated with AGO-Flag in FUS R495X-expressing HEK 293 that were further treated for 72 hrs with carrier alone or Cycloheximide (0.02 μg/ml). (FIG. 9F) The ratio of pre-miRNA to mature miRNA levels in mouse embryonic fibroblasts, pretreated for 5 hrs with HSP90 inhibitors (17-AAG, 1 μM or Geldanamycin, 1 μM) and then incubated for 36 more hours with Thapsigargin (5 nM) in combinations with the respective HSP90 inhibitor. Bars represent the average of three independent experiments. miRNA normalized to the expression levels of Snord70, and pre-miRNA normalized to Gapdh.
For mass-spectrometry, HEK293 that either stably express Ago2-FLAG (n=3 for each group) or Dicer-Flag transfected cells (48 hrs post-transfection, n=4 for each group) were untreated or stressed with 0.5 mM sodium arsenite for 60 minutes before harvest. IP was performed with the FLAG-IPT1 Kit (Sigma-Aldrich). Negative controls were HEK293 cells not containing a FLAG-construct. Samples containing the eluted proteins and the FLAG peptide were filtered using 3 kDa molecular weight cut-off spin columns (Amicon, Millipore). Buffer was exchanged to 50 mM ammonium bicarbonate (Sigma-Aldrich) in the same step. Proteins were reduced by addition of dithiothreitol (Sigma-Aldrich) to a final concentration of 5 mM and incubation for 30 minutes at 60° C., and alkylated with 10 mM iodoacetamide (Sigma-Aldrich) in the dark for 30 minutes at 21° C. The proteins were then digested using trypsin (Promega; Madison, Wis., USA) at a ratio of 1:50 (w/w trypsin/protein) for 16 hrs at 37° C. […]

Regarding `O=[As]O` [sodium arsenite], the “Ago2 and/or Dicer protein interactions with SG components eiF2S1, eIF3, eIF5a and with PCBP1, PCBP2” value is recorded as “increased Ago2 and/or Dicer protein interactions with SG components”; the “increase of Ago2 phosphorylation on serine-387” value was “more than 10 fold”; the “interaction of HSP90 and co-chaperone p23 with Dicer” value is given as “increased interaction with Dicer under stress”. Also, the “interactions of Ago2 with Dicer” value (relative to basal conditions) is given as “enhanced interactions of Ago2 with Dicer”.
